In patent US11820870B2, “Photocontrolled dynamic covalent linkers for polymer networks” (Northwestern University, priority 2018, dated 2023):

Legend:
[1] = Pseudo-first-order reversible esterification with pinacol (LCMS kinetics); type: physicochemical
Experimental: A small-molecule model compound, azobenzene 1, was first designed, in which the boronic acid was positioned ortho to the azo group (FIG. 5). Irradiation of (E)-1 with 365-nm light provided a 88:12 mixture of Z and E isomers. This mixture was subjected to excess pinacol in acetonitrile-water (1:1 v/v, 25° C.) to determine the apparent rates and equilibrium constants of boronic acid (1) esterification and boronic ester (2) hydrolysis for each isomer. While other 1,2- and 1,3-diols were hydrolyzed too quickly to be studied, the unusually slow rate of pinacol hydrolysis allowed the E and Z isomers to be resolved and their reaction kinetics to be monitored by high-performance liquid chromatography (HPLC; see Supporting Information (SI) for details).
After 8 hours, the reactions had reached equilibrium, with 39% conversion of (Z)-1 to (Z)-2 and only 9% conversion of (E)-1 to (E)-2 (FIG. 6A). Using a reversible pseudo-first-order kinetic model, it was determined that the esterification of (Z)-1 was 2.1 times faster than the esterification of (E)-1 (k1) (FIG. 6B, Table 1). The rates of hydrolysis could also be extracted from this model: (E)-2 underwent hydrolysis 2.0 times faster than (Z)-2 did (k−1). These apparent rate constants for hydrolysis were verified by hydrolyzing a mixture of (E)-2 and (Z)-2 under irreversible pseudo-first-order conditions (FIGS. 6C and 6D). Taken together, the apparent equilibrium to form boronic ester from boronic acid and pinacol is 4.3 times more favorable for the Z isomer relative to the E isomer. While convenient for small-molecule kinetic studies, the rate of pinacol ester formation is too slow to be practical for gelation. Thus, a less sterically hindered diol was used for hydrogel studies.
Stock solutions of (E)-1 or (E)-2 were prepared in acetonitrile at 800 μM. Serial dilutions were performed to obtain a final concentration of 12.5 μM. The solutions were directly injected onto the LCMS (Poroshell 120 column, EC-C18, 2.7 μm, 2.1×50 mm). Runs were ten minutes long with solvent gradient from 50:50 to 100:0 ACN:H2O in the first three minutes. Detection was performed at 254 nm with a variable-wavelength detector. The peak area for each concentration was recorded. A calibration curve was created. […] The concentration of the Z-isomer can be calculated from the known concentration of the E-isomer (based on the previously-generated calibration curve).
500 μL of a stock solution of 800 μM of (E)-1 was diluted with 500 μL of 80 mM of pinacol in DI water. The concentrations of (E)-1 and (E)-2 were monitored as a function of time using the above LCMS method. The observed rate constants of esterification (k1(E)) and hydrolysis (k−1(E)) were determined using the derivation shown below.
The data from the concentrations vs. time experiments was fit to the linear expression (1) for a reversible first order reaction and yields the slope denoted as equation (4). […] With the apparent equilibrium constant and slope known, the rates of hydrolysis can be determined with equation (5), and subsequently the rate of esterification can be determined.
500 μL of a stock solution of 800 μM of (E)-1 was irradiated with a 365 nm flashlight for 10 minutes to produce a mixture of (E)-1 and (Z)-1. The mixture was then diluted with 500 μL of a 80 mM pinacol solution in DI water, and the concentrations of (E)-2 and (Z)-2 were monitored as a function of time using the above LCMS method. […]

[2] = Pseudo-first-order irreversible hydrolysis of boronic ester (LCMS kinetics); type: physicochemical; conditions: obtained from the irreversible hydrolysis experiments; 1:1 ACN:H2O; average of three experiments
Experimental: After 8 hours, the reactions had reached equilibrium, with 39% conversion of (Z)-1 to (Z)-2 and only 9% conversion of (E)-1 to (E)-2 (FIG. 6A). Using a reversible pseudo-first-order kinetic model, it was determined that the esterification of (Z)-1 was 2.1 times faster than the esterification of (E)-1 (k1) (FIG. 6B, Table 1). The rates of hydrolysis could also be extracted from this model: (E)-2 underwent hydrolysis 2.0 times faster than (Z)-2 did (k−1). These apparent rate constants for hydrolysis were verified by hydrolyzing a mixture of (E)-2 and (Z)-2 under irreversible pseudo-first-order conditions (FIGS. 6C and 6D). […]
Stock solutions of (E)-1 or (E)-2 were prepared in acetonitrile at 800 μM. […] The peak area for each concentration was recorded. […] The concentration of the Z-isomer can be calculated from the known concentration of the E-isomer (based on the previously-generated calibration curve).
500 μL of a stock solution of 800 μM of (E)-2 was irradiated with a 365 nm flashlight for 10 minutes to produce a mixture of (E)-2 and (Z)-2. The mixture was then diluted with 500 μL of DI H2O and the concentration of (E)-2 and (Z)-2 was monitored as a function of time. The observed rate constants of hydrolysis k−1(E) and k−1(Z) were determined using the derivation shown below. […]

[3] = reversible esterification, 400 μM with 40 mM pinacol, 1:1 ACN:H2O, 25° C., average of three experiments

conversion of boronic acid to boronic ester at equilibrium ([1]; after 8 hours, excess pinacol, acetonitrile-water 1:1 v/v, 25° C.) | Keq [a] apparent equilibrium constant [1, 3] | SMILES | k1 [a] apparent rate constant of esterification [1, 3] | k−1 [a] apparent rate constant of hydrolysis ([1]; obtained from the reversible esterification experiment, 1:1 ACN:H2O, average of three experiments) | hydrolysis rate (k−1), times faster than (Z)-2 ([1]; ratio E isomer to Z isomer) | k−1 [b] apparent rate constant of hydrolysis [2]
9% | 0.090 ± 0.016 | COC(=O)c1ccc(/N=N/c2ccccc2B(O)O)cc1 [(E)-1, (E)-(2-((4-(methoxycarbonyl)phenyl)diazinyl)phenyl)boronic acid] | 2.56 ± 0.28 × 10^−5 s^−1 | – | – | –
– | – | COC(=O)c1ccc(/N=N/c2ccccc2B2OC(C)(C)C(C)(C)O2)cc1 [(E)-2, Methyl (E)-4-((2-(4,4,5,5-tetramethyl-1,3,2,-dioxaborolan-2-yl)phenyl)diazinyl)benzoate] | – | 2.76 ± 0.32 × 10^−4 s^−1 | 2.0 times | 2.83 ± 0.06 × 10^−4 s^−1
